The source of these data is patent publication US11274090B2, “P300/CBP HAT inhibitors” (Constellation Pharmaceuticals, Inc., priority 2018, dated 2022).

full length p300, sequence (Q09472 whole entry): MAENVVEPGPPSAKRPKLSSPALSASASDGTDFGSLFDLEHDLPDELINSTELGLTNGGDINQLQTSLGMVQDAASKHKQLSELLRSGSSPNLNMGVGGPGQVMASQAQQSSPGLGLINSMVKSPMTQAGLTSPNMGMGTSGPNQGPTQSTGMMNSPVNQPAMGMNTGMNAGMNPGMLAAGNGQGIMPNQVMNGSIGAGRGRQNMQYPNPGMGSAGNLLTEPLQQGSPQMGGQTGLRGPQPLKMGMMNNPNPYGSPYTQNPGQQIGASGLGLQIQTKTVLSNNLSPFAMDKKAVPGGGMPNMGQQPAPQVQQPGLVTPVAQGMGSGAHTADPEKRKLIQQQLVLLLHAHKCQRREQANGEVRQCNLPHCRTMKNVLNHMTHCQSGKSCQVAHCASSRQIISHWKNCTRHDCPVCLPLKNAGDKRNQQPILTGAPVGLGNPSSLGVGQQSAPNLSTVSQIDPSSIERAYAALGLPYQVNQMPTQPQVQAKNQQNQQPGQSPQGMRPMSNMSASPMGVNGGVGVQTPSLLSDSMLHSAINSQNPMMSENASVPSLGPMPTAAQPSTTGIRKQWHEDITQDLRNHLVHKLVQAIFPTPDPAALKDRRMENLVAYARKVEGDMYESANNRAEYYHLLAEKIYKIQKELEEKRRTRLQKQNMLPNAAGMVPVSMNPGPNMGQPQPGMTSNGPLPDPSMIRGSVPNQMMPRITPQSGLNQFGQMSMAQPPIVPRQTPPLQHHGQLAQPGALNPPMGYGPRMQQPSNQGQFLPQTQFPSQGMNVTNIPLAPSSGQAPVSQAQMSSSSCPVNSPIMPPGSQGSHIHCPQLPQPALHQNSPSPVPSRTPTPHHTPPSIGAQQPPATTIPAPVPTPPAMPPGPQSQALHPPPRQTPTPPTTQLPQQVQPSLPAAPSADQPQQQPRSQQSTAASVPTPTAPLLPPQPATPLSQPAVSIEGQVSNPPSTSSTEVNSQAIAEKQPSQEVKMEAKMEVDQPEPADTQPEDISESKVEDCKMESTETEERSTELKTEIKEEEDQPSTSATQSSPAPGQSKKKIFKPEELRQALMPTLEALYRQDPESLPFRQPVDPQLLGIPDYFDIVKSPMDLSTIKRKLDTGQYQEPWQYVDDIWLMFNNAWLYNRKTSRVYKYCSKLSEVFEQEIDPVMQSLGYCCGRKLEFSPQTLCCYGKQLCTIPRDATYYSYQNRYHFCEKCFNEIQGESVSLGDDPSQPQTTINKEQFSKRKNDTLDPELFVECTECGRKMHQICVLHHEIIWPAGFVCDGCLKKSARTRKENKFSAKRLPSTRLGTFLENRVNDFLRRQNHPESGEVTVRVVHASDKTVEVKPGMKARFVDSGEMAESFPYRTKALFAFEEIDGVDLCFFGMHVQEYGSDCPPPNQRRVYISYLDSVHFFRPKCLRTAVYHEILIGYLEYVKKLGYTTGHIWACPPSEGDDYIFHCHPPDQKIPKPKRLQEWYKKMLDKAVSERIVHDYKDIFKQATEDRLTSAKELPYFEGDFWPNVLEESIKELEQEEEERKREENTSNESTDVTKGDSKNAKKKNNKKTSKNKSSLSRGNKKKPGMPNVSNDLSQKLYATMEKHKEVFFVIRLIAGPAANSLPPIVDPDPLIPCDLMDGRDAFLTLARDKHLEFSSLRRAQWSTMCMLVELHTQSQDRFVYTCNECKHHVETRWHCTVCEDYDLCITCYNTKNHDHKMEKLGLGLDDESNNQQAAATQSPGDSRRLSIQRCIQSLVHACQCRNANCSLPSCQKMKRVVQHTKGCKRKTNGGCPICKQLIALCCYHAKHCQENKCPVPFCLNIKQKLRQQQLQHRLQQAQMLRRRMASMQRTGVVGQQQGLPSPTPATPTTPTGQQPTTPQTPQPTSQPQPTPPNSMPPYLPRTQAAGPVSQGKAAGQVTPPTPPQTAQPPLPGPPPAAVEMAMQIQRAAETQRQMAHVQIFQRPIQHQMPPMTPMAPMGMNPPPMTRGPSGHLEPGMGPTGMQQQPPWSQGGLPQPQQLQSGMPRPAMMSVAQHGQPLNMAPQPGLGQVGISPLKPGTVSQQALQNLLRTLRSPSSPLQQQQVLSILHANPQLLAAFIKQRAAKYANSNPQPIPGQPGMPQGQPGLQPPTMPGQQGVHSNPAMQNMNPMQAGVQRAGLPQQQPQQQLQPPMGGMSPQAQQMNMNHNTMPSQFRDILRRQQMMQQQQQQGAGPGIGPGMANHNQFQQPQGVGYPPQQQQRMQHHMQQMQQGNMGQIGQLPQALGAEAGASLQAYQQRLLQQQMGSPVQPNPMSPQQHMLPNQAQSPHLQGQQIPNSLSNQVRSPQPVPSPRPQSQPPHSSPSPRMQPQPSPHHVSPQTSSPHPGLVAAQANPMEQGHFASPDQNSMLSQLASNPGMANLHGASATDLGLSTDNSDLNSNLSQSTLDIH
p300 HAT domain (residues 1287-1666), sequence (Q09472 1287-1666): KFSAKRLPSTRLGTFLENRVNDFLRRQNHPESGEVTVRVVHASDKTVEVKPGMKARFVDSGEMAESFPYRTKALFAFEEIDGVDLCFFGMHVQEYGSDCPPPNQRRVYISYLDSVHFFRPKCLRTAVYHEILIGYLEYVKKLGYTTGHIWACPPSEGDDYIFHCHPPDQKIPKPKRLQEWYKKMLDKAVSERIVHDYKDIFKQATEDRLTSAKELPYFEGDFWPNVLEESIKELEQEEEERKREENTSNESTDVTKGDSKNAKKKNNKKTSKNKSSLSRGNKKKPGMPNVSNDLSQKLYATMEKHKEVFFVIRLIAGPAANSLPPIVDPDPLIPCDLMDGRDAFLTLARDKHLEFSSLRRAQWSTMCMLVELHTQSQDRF

For one assay, the target named is full length p300 (Homo sapiens (Human), UniProt Q09472). Description: full length p300 SPA assay. The following applies: average of at least 2 replicate titrations, read-out: FL P300 IC50. The class given is biochemical. The procedure:
Reactions were initiated with 12.5 μL 2 μM biotinylated H3(1-21) peptide (New England Peptide) and run for 1 hr at RT, then quenched with 20 μL stop solution (200 mM Tris pH 8.0, 200 mM EDTA, 2M NaCl, 160 μM anacardic acid). 35 μL of the reaction volume was transferred to a 384-well streptavidin FlashPlate (PerkinElmer) using a Bravo liquid handler (Velocity 11) and incubated for 1.5 hr at RT. Plates were aspirated, washed with 95 μL wash buffer (15 mM Tris pH 8.5, 0.069 μM Brij-35), aspirated, sealed, and scintillation counts read on a Topcount (PerkinElmer). Data were analyzed in Genedata to determine inhibitor IC50 values.
The full length p300 SPA assay was run following the same protocol as p300 HAT SPA assay, but used 6 nM purified full length p300 (purchased from Active Motif) in place of the purified p300-HAT domain.
What is called IC50 is the concentration that inhibits the measured activity by half. For `N#Cc1ccc(CCNC(C(=O)Nc2ccc(-c3cn[nH]c3)cn2)c2ccccc2)cc1` (single isomer, unassigned) [7 Isomer 2], the IC50 amounted to 13.4 nM.
The same measure, in the same setting: the value for `Cn1cnc(-c2ccc(NC(=O)C(NCCc3ccc(C#N)cc3)c3ccccc3)nc2)c1` (single isomer, unassigned) [13 Isomer 1] was 273 nM; that for `Cn1ccc(-c2ccc(NC(=O)C(NCCc3ccc(C#N)cc3)c3ccccc3)nc2)n1` (single isomer, unassigned) [14 Isomer 1] was 176 nM; that for `Cc1ccc(-c2ccc(NC(=O)C(NCC(C)c3ccc(C#N)cc3)c3ccccc3)nc2)nn1` (single isomer, unassigned) [15 Isomer 4] was 1.5 nM.
Consider `COc1cc(NC(=O)C(NCCc2ccc(C#N)cc2)c2ccccc2)ccc1-c1cnn(C)c1` (single isomer, unassigned) [25 Isomer 1], for which the IC50 came out at 40.1 nM.

For a further assay, the target named is p300 HAT domain (residues 1287-1666) (Homo sapiens (Human), UniProt Q09472). Nature of the assay: p300 HAT SPA assay (scintillation proximity assay, acetylation of biotinylated H3(1-21) peptide). The class given is biochemical. The following applies: average of at least 2 replicate titrations. The procedure, abridged:
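Scintillation proximity readout of acetylated biotin-H3(1-21) captured on streptavidin plates after 1.5 hr at RT; enzyme was Ni2+/anion-exchange-purified HAT domain in 20 mM Hepes pH 7.5. Inhibitor IC50s calculated from the data.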
(In general: In a scintillation proximity assay essentially only radioactivity close to the scintillant gives light.)
Regarding `N#Cc1ccc(CCNC(C(=O)Nc2ccc(-c3cn[nH]c3)cn2)c2ccccc2)cc1` (single isomer, unassigned) [7 Isomer 2], the IC50 was 376 nM.
The same measure, in the same setting: the value for `Cn1cnc(-c2ccc(NC(=O)C(NCCc3ccc(C#N)cc3)c3ccccc3)nc2)c1` (single isomer, unassigned) [13 Isomer 1] was over 5000 nM; that for `Cn1ccc(-c2ccc(NC(=O)C(NCCc3ccc(C#N)cc3)c3ccccc3)nc2)n1` (single isomer, unassigned) [14 Isomer 1] was over 5000 nM.
The same measure, in the same setting: next, `Cc1ccc(-c2ccc(NC(=O)C(NCC(C)c3ccc(C#N)cc3)c3ccccc3)nc2)nn1` (single isomer, unassigned) [15 Isomer 4]: 41.3 nM; `COc1cc(NC(=O)C(NCCc2ccc(C#N)cc2)c2ccccc2)ccc1-c1cnn(C)c1` (single isomer, unassigned) [25 Isomer 1]: 1590 nM.
In turn, `C[C@H](CNC(C(=O)Nc1ccc(-c2cnn(CC(=O)N(C)C)c2)cn1)c1cccc(F)c1)c1ccc(C#N)cc1` (single isomer, unassigned) [138 Isomer 1] registered an IC50 of 435 nM.
The molecule `C[C@H](CNC(C(=O)Nc1ccc(-c2cnn(C)c(=O)c2)cn1)c1ccccc1)c1ccc(C#N)cc1` (single isomer, unassigned) [139 Isomer 2] registered an IC50 of over 2000 nM.
The same measure, in the same setting: next, `Cn1cc(-c2ccc(NC(=O)C(NCCc3ccc(C(F)(F)F)nc3)c3ccccc3)nc2)cn1` (single isomer, unassigned) [140 Isomer 1]: 153 nM.
Still for that read-out and setting: the value for `Cn1cc(-c2ccc(NC(=O)C(NCCc3ccc(C(F)(F)F)nc3)c3ccccc3)nc2)cn1` (single isomer, unassigned) [140 Isomer 2] was over 2000 nM; that for `Cc1ccc(CCNC(C(=O)Nc2ccc(-c3cnn(C)c3)cn2)c2ccccc2)cn1` (single isomer, unassigned) [141 Isomer 1] was 95.1 nM.
Still for that read-out and setting: next, `Cc1ccc(CCNC(C(=O)Nc2ccc(-c3cnn(C)c3)cn2)c2ccccc2)cn1` (single isomer, unassigned) [141 Isomer 2]: over 2000 nM; `Cn1cc(-c2ccc(NC(=O)C(NCCc3ccc(C#N)cn3)c3ccccc3)nc2)cn1` (single isomer, unassigned) [142 Isomer 1]: over 2000 nM.
The molecule `Cn1cc(-c2ccc(NC(=O)C(NCCc3ccc(C#N)cn3)c3ccccc3)nc2)cn1` (single isomer, unassigned) [142 Isomer 2] registered an IC50 of 210 nM.
In turn, `Cc1ccc(C(C)CNC(C(=O)Nc2ccc(-c3cnn(C)c3)cn2)c2ccccc2)cn1` (single isomer, unassigned) [143 Isomer 1] registered an IC50 of over 2000 nM.
The same measure, in the same setting: next, `Cc1ccc(C(C)CNC(C(=O)Nc2ccc(-c3cnn(C)c3)cn2)c2ccccc2)cn1` (single isomer, unassigned) [143 Isomer 3]: over 2000 nM.
Same read-out and setting: next, `Cc1ccc(C(C)CNC(C(=O)Nc2ccc(-c3cnn(C)c3)cn2)c2ccccc2)cn1` (single isomer, unassigned) [143 Isomer 4]: 171 nM; `Cn1cc(-c2ccc(NC(=O)C(NCCn3cc(C#N)cn3)c3ccccc3)nc2)cn1` (single isomer, unassigned) [144 Isomer 1]: over 2000 nM.
Same read-out and setting: the value for `Cn1cc(-c2ccc(NC(=O)C(NCCn3cc(C#N)cn3)c3ccccc3)nc2)cn1` (single isomer, unassigned) [144 Isomer 2] was 1070 nM; that for `Cc1cc(C#N)nn1CCNC(C(=O)Nc1ccc(-c2cnn(C)c2)cn1)c1ccccc1` (single isomer, unassigned) [145 Isomer 1] was 783 nM; that for `Cc1cc(C#N)nn1CCNC(C(=O)Nc1ccc(-c2cnn(C)c2)cn1)c1ccccc1` (single isomer, unassigned) [145 Isomer 2] was over 2000 nM.
`CNC(=O)Cn1cc(-c2ccc(NC(=O)C(NC[C@@H](C)c3ccc(C#N)cc3)c3ccccc3)nc2)cn1` (single isomer, unassigned) [146 Isomer 1] registered an IC50 of 993 nM.
`CNC(=O)Cn1cc(-c2ccc(NC(=O)C(NC[C@@H](C)c3ccc(C#N)cc3)c3ccccc3)nc2)cn1` (single isomer, unassigned) [146 Isomer 2] yielded an IC50 of 7.76 nM.
On the same count and under the same terms, next, `C[C@H](CNC(C(=O)Nc1ccc(-c2cnn(CC(N)=O)c2)cn1)c1ccccc1)c1ccc(C#N)cc1` (single isomer, unassigned) [147 Isomer 1]: 1880 nM; `C[C@H](CNC(C(=O)Nc1ccc(-c2cnn(CC(N)=O)c2)cn1)c1ccccc1)c1ccc(C#N)cc1` (single isomer, unassigned) [147 Isomer 2]: 6.16 nM; `Cn1cc(-c2ccc(NC(=O)C(NCCc3ccc(Cl)cc3)c3cnn(C)c3)nc2)cn1` (single isomer, unassigned) [148 Isomer 2]: 140 nM.
Take `Cn1cc(-c2ccc(NC(=O)C(NCC(c3ccc(C#N)cc3)C(F)(F)F)c3ccccc3)nc2)cn1` (single isomer, unassigned) [149 Isomer 1]: the IC50 is over 2000 nM.
Still for that read-out and setting: next, `Cn1cc(-c2ccc(NC(=O)C(NCC(c3ccc(C#N)cc3)C(F)(F)F)c3ccccc3)nc2)cn1` (single isomer, unassigned) [149 Isomer 3]: 647 nM; `Cn1cc(-c2ccc(NC(=O)C(NCC(c3ccc(C#N)cc3)C(F)(F)F)c3ccccc3)nc2)cn1` (single isomer, unassigned) [149 Isomer 4]: over 2000 nM; `Cc1ncc(C(C)CNC(C(=O)Nc2ccc(-c3cnn(C)c3)cn2)c2ccccc2)cn1` (single isomer, unassigned) [150 Isomer 1]: over 2000 nM.
On the same count and under the same terms, next, `Cc1ncc(C(C)CNC(C(=O)Nc2ccc(-c3cnn(C)c3)cn2)c2ccccc2)cn1` (single isomer, unassigned) [150 Isomer 2]: over 2000 nM.
The molecule `Cc1ncc(C(C)CNC(C(=O)Nc2ccc(-c3cnn(C)c3)cn2)c2ccccc2)cn1` (single isomer, unassigned) [150 Isomer 3] returned an IC50 of over 2000 nM.
On the same count and under the same terms, next, `Cc1ncc(C(C)CNC(C(=O)Nc2ccc(-c3cnn(C)c3)cn2)c2ccccc2)cn1` (single isomer, unassigned) [150 Isomer 4]: 622 nM.
The molecule `Cn1cc(-c2ccc3c(c2)CCCN3C(=O)[C@@H](NCCc2ccc(C#N)cc2)c2ccccc2)cn1` (single isomer, unassigned) [151 Isomer 1] had an IC50 of over 5000 nM.
`Cn1cc(-c2ccc3c(c2)CCCN3C(=O)[C@@H](NCCc2ccc(C#N)cc2)c2ccccc2)cn1` (single isomer, unassigned) [151 Isomer 2]: the IC50 was over 5000 nM.
Same read-out and setting: next, `NS(=O)(=O)c1ccc(CCN[C@H](C(=O)N2CCc3ccccc32)c2ccccc2)cc1` (single isomer, unassigned) [153 Isomer 1]: over 60000 nM; `NS(=O)(=O)c1ccc(CCN[C@H](C(=O)N2CCc3ccccc32)c2ccccc2)cc1` (single isomer, unassigned) [153 Isomer 2]: 1930 nM.
The same measure, in the same setting: next, `Cc1ncc(-c2ccc(NC(=O)[C@@H](NC[C@@H](C)c3ccc(C#N)cc3)c3ccccc3)nc2)cn1` (single isomer, unassigned; isomer 1) [6 Isomer 1]: 1680 nM.
Molecule `Cc1ncc(-c2ccc(NC(=O)[C@@H](NC[C@H](C)c3ccc(C#N)cc3)c3ccccc3)nc2)cn1` (single isomer, unassigned; isomer 2) [6 Isomer 2] gave an IC50 of over 2000 nM.
In turn, `CN1CCN(c2ccc(NC(=O)[C@H](NCCc3ccc(C#N)cc3)c3ccccc3)cc2)CC1` (single isomer, unassigned; isomer 2) [18 Isomer 2] showed an IC50 of over 5000 nM.
The same measure, in the same setting: next, `Cc1ncc(-c2ccc(NC(=O)[C@H](NC[C@@H](C)c3ccc(C#N)cc3)c3ccccc3)nc2)cn1` (single isomer, unassigned; isomer 3) [6 Isomer 3]: over 2000 nM; `Cc1ncc(-c2ccc(NC(=O)[C@H](NC[C@H](C)c3ccc(C#N)cc3)c3ccccc3)nc2)cn1` (single isomer, unassigned; isomer 4) [6 Isomer 4]: 20.9 nM.
As to “(R, S)- and (S, S)-2-((2- (4- cyanophenyl)propyl)ami- no)-N-(5-(1,3-dimethyl- 1H-pyrazol-4-yl)pyridin- 2-yl)-2-phenylacetamide [113 Isomer 1]”, half-maximal inhibition (IC50) was put at 1800 nM.
The same measure, in the same setting: next, “(S,R)-, (R,S)-, (S,S)-, (R,R)-(2-((2-(4-cyanophenyl)propyl)amino)-N-(5-(1-(difluoromethyl)-1H-pyrazol-4-yl)pyridin-2-yl)-2-phenylacetamide [20 Isomer 1]”: 925 nM; “(S,R)-, (R,S)-, (S,S)-, (R,R)-(2-((2-(4-cyanophenyl)propyl)amino)-N-(5-(1-(difluoromethyl)-1H-pyrazol-4-yl)pyridin-2-yl)-2-phenylacetamide [20 Isomer 3]”: 1630 nM.
The same measure, in the same setting: next, “(S,R)-, (R,S)-, (S,S)-, (R,R)-(2-((2-(4-cyanophenyl)propyl)amino)-N-(5-(1-(difluoromethyl)-1H-pyrazol-4-yl)pyridin-2-yl)-2-phenylacetamide [20 Isomer 4]”: over 2000 nM.
